Measured values taken from patent EP0979818A1, “BENZOIC ACID COMPOUNDS AND MEDICINAL USE THEREOF” (YOSHITOMI PHARMACEUTICAL INDUSTRIES, LTD., priority 1997, dated 1998).
Like-named read-outs stand apart in the source and are kept apart here. Blank lines part the entries; values can stand above or below the compound they belong to.

How the values were obtained:
[1] = biological target: isolated guinea pig ascending colon (Cavia porcellus, UniProt O70528); test: contraction of the isolated guinea pig ascending colon; format: cell-based
Procedure: Male Hartley guinea pig was killed by a blow, ascending colon was taken from it and longitudinal muscle was separated. About 3 cm longitudinal muscle segment was suspended in 10 ml of a Tyrode solution with the load of 1 g. Tyrode solution contained methysergide (1 µM) and granisetron (1 µM) to inhibit responses mediated by 5-HT1, 5-HT2 and 5-HT3 receptors. Tyrode solution was maintained at 37°C and ventilated with a mixed gas of O2 (95%) and CO2 (5%). The contraction was isotonically measured via isotonic transducer. After an equilibrium period of about 30 minutes, the contraction by methacholine (30 µM) was measured two times at 15 minute intervals. Twenty minutes later, Y-36912 was added into the bath and the contraction was measured in the presence of a solvent or 1-methyl-1H-indole-3-carboxylic acid · 1-(2-methylsulfonylaminoethyl)-pyperidin-4-ylmethyl ester (hereinafter to be referred to as GR113808, 10nM), which is 5-HT4 receptor antagonist. The time of pretreatment with the solvent or GR113808 was 10 minutes. To avoid tachyphylaxis, the contraction induced by one concentration per preparation was measured. The contraction in the presence of a solvent or GR113803 was measured using a preparation from the same animal. The contraction effect of Y-36912 was measured as a percentage of responses to the second contraction by methacholine. […]

5-HT4 receptor = biological target: T1, 5-HT4 receptor (Cavia porcellus, UniProt O70528); test: 5-HT4 receptor binding test; details: guinea pig striatum crude synapse membrane, [3H]GR113808 0.1 nM, 37°C; read-out: Affinity for receptor (Ki value, nM) 5-HT4
T1 construct: Crude synapse membrane sample was prepared from guinea pig striatum; from tissue; host or cells: guinea pig striatum, crude synaptic membranes
Procedure: According to the method of C.J. Grossman et al. [British Journal of Pharmacology, vol. 109, pp. 618-624 (1993)1, a 5-HT4 receptor binding test was run using, as a tracer ligand, 1-methyl-1H-indole-3-carboxylic acid · 1-(2-methylsulfonylaminoethyl)-piperidin-4-ylmethyl ester substituted by tritium (hereinafter to be referred to as [^3H]GR113808). Crude synapse membrane sample was prepared from guinea pig striatum, suspended in 50 mM HEPES buffer (pH 7.4) and used for testing. Y-36912 having several different concentrations and [^3H]GR113808 (final concentration 0.1 nM) were added to this suspension and allowed to react at 37°C. Thirty minutes later, the reaction mixture was filtered by suction with cell harvester. The filter was washed with 50 mM HEPES buffer, and the radioactivity on the filter was counted by liquid scintillation counter. The non-specific binding was determined in the presence of 1µM GR113808. The concentration of Y-36912 necessary for 50% inhibition (IC50) was determined from graph and convened to binding inhibition constant (Ki value).

5-HT3 receptor = biological target: T2, 5-HT3 receptor (Rattus norvegicus, UniProt P35563); test: 5-HT3 receptor binding test; details: rat cerebral cortex crude synapse membrane, [3H]granisetron 1.0 nM, 25°C; value marked * is IC50, not Ki; read-out: Affinity for receptor 5-HT3 (* shows IC50)
T2 construct: Crude synapse membrane sample was prepared from rat cerebral cortex; from tissue; host or cells: rat cerebral cortex, crude synaptic membranes
T2 sequence (P35563 24-483): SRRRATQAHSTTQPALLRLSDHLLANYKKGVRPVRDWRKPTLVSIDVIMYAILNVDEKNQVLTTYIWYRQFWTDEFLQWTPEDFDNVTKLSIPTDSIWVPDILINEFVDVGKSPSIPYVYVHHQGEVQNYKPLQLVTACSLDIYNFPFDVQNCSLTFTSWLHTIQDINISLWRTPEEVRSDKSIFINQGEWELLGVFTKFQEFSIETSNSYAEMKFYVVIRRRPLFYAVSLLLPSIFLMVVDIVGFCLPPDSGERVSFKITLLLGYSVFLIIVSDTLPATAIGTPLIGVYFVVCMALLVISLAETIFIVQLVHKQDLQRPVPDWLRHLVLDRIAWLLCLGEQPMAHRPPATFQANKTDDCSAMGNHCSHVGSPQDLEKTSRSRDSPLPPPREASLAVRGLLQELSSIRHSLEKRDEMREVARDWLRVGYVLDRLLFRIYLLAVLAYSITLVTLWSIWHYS
Procedure: According to the method of Nelson and Thomas [Biochemical Pharmacology, vol. 38, pp. 1693-1695 (1989)], a 5-HT3 receptor binding test was run using, as a tracer ligand, endo-1-methyl-N-(9-methyl-9-azabicyclo[3.3.1]non-3-yl)-1H-indazole-3-carboxamide substituted by tritium (hereinafter to be referred to as [^3H]granisetron). Crude synapse membrane sample was prepared from rat cerebral cortex, suspended in 50 mM HEPES buffer (pH 7.4) and used for testing. Y-36912 having several different concentrations and [^3H]granisetron (final concentration 1.0 nM) were added to this suspension and allowed to react at 25°C. Thirty minutes later, the reaction mixture was filtered by suction with cell harvester. The filter was washed with 50 mM Tris buffer (pH 7.4), and the radioactivity on the filter was counted using liquid scintillation counter or β-plate. The non-specific binding was determined in the presence of 1 µM tropisetron. The concentration of Y-36912 necessary for 50% inhibition (IC50) was determined from graph and converted to binding inhibition constant (Ki value).

dogs = test: promotion of postprandial gastrointestinal motility in dogs without anesthesia; format: in vivo; details: for Difference of motility index (g·min) Colon / Difference of motility index (g·min) Stomach: Mean ± S.E.; for minimal effective dose: Canis lupus familiaris, iv
Procedure: According to the method of Ito et al. [Journal of Smooth Muscle Research, vol. 13, pp. 33-43 (1976)], male and female adult mongrel dogs were subjected to laparotomy under pentobarbital anesthesia, and force transducer was sutured to the serous membrane of various sites of gastrointestinal tract in the direction of circular muscle. After about two weeks' recovery period, postprandial gastrointestinal motility was measured in vigilance. The results are shown in Table 3 as the difference in motility index (g·min) between before and after administration of Y-36912. Y-36912 was administered intravenously.

[2] = evaluation of bioavailability in rats; format: in vivo; details: rat, po; female SD rats, 3 mg/kg i.v. and 30 mg/kg p.o., from plasma AUC
Procedure: Female SD rats (4 per group) were administered with 3 mg/kg (i.v.) and 30 mg/kg (p.o.) of Y-36912. The blood was taken with the passage of time, and the concentration of the drug in plasma was measured with high performance liquid chromatography. […] In the formula, AUC means area under the plasma concentration-time curve. (AUC by oral administration)/(AUC by intravenous administration)X(Dose of intravenous administration)/(Dose of oral administration)X 100(%) [formula]

[3] = measurement of absorption by small intestine in rat; format: in vivo; details: small intestine loop, 5 mg/kg, male SD rats, intestinal loop, 5 mg/10 ml in 5% glucose, 10 ml/kg, read-out: absorption (absorption ratio by small intestine loop)
Procedure: Male SD rats (3 per group) fasted overnight were subjected to laparotomy under ether anesthesia, and the upper part of small intestine was ligated to form a loop (15-20 cm in length). The drug was dissolved in 5% glucose to the drug concentration of 5 mg/10 ml, and 10 ml/kg thereof was injected into the loop. At 2 hours from the drug injection, the loop was removed, washed with 100 ml of 0.1 N hydrochloric acid-methanol (3:7), and the drug concentration was determined by high performance liquid chromatography. The absorption ratio was calculated according to the following formula. The absorption of Y-36912 was 60.5±13.7 % (Injected amount of drug (mg) - drug concentration in loop (mg/ml) x 100 (ml))/(Injected amount of drug (mg))x 100(%) [formula]

mice = test: stimulation of defecation in mice; format: in vivo; details: for Number (of feces) / Wet weight (of feces): 2 hours, Mean ± S.E.; for Promotion(%) of number of feces / Promotion(%) of wet weight of feces: versus vehicle
Procedure: Male ICR mice were subcutaneously administered with Y-36912 after adaptation to experimental surroundings for thirty minutes. The number and wet weight of feces excreted in 2 hours from immediately after administration were measured.

guinea pig = test: promotion of transit in large intestine in guinea pig; format: in vivo; details: guinea pigs; for Ratio of transit in large intestine (%): Evans blue, 1 hour, Mean ± S.E.; for Promotion (%) of transit in large intestine: versus vehicle
Procedure: Male Hartley guinea pigs were subjected to laparotomy under ether anesthesia, and a silicone tube was inserted into the beginning of ascending colon and fixed there. The other end was passed under the skin to be exposed from the back and sutured. At day 5 postoperation, Y-36912 was administered orally and Evans blue solution was injected into the colon through the silicon tube. One hour later, the large intestine was removed, and the entire length of the large intestine and the length of the transit of the Evans blue solution were measured. Evans blue transit ratio relative to the entire length of the large intestine (100 %) was calculated.

rats = test: promotion of gastric emptying in rats; format: in vivo; details: for Number of pellets (remaining in stomach): female Wistar rats, 1 hour after pellets, Mean ± S.E.; for Promotion (%) of gastric emptying: versus vehicle
Description: Barium pellets (ca. 1 mm diameter) coated with polystyrene was intragastrically administered to female Wistar rats. One hour later, stomach was removed, and the remaining pellets were counted. Y-36912 was orally administered one hour before administration of the pellets.

SD rats [4] = test: toxicity testing, single oral dose in rats; format: in vivo; details: four female SD rats, 750 mg/kg
Procedure: There was no death when four female SD rats were administered orally with Y-36912 at a dose of 750 mg/kg.

SD rats [5] = test: toxicity testing, repeated administration for 10 days in rats; format: in vivo; details: female and male SD rats, repeated 30 mg/kg for 10 days

Sequence of isolated guinea pig ascending colon (O70528 whole entry): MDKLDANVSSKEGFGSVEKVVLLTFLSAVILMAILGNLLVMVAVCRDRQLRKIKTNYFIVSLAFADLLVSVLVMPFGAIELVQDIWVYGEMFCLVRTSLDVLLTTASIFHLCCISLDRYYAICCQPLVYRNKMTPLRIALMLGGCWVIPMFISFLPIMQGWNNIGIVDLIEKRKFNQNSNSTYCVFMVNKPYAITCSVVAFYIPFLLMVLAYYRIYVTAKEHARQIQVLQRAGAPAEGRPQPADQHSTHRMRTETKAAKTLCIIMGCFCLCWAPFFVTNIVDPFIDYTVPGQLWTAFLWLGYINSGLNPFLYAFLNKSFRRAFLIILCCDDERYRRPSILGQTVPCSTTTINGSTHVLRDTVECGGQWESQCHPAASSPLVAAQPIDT
T1 sequence (O70528 whole entry): as above

pKB, antagonism of GR113808 to contraction of Y-36912 ([1]; GR113808 10 nM, 10 minutes pretreatment, agonist Y-36912): 8.8
SMILES: Cn1cc(C(=O)OCC2CCN(CCNS(C)(=O)=O)CC2)c2ccccc21 [GR113808, 1-methyl-1H-indole-3-carboxylic acid · 1-(2-methylsulfonylaminoethyl)-pyperidin-4-ylmethyl ester, reference compound]

SMILES: COc1cc(N)c(Cl)cc1C(=O)NCC1CCN(CCCS(=O)(=O)Cc2ccccc2)CC1 [Y-36912, 4-amino-5-chloro-2-methoxy-N-((1-(3-benzylsulfonylpropyl)piperidin-4-yl)methyl)benzamide]
Ki (5-HT4 receptor): 1.5 nM
IC50 (5-HT3 receptor): > 1000 nM
EC50 ([1]; longitudinal muscle, methysergide 1 µM and granisetron 1 µM present, relative to methacholine 30 µM contraction, read-out: Contraction effect on the isolated ascending colon (EC50 value)): 10.8 nM
Difference of motility index (g·min) Colon (dogs; 0.01 mg/kg i.v.): 27.1 ± 6.8 g·min
Difference of motility index (g·min) Stomach (dogs; 0.01 mg/kg i.v.): 41.3 ± 35.4 g·min
Difference of motility index (g·min) Colon (dogs; 0.03 mg/kg i.v.): 28.3 ± 8.5 g·min
Difference of motility index (g·min) Stomach (dogs; 0.03 mg/kg i.v.): 65.1 ± 38.1 g·min
Difference of motility index (g·min) Colon (dogs; 0.1 mg/kg i.v.): 58.2 ± 11.9 g·min
Difference of motility index (g·min) Stomach (dogs; 0.1 mg/kg i.v.): 60.5 ± 18.1 g·min
minimal effective dose (dogs; read-out: dose that increased colonic (lower gastrointestinal) motility): 0.1 mg/kg
minimal effective dose (dogs; read-out: dose that increased gastric (upper gastrointestinal) motility): ≥ 0.03 mg/kg
bioavailability [2]: 85.2%
Fa at 2 h [3]: 60.5 ± 13.7%
Number (of feces) (mice; 0.03 mg/kg s.c): 5.4 ± 0.7
Wet weight (of feces) (mice; 0.03 mg/kg s.c): 78.2 ± 8.6
Promotion(%) of number of feces (mice; 0.03 mg/kg s.c): 59%
Promotion(%) of wet weight of feces (mice; 0.03 mg/kg s.c): 38%
Number (of feces) (mice; 0.1 mg/kg s.c): 6.5 ± 0.8
Wet weight (of feces) (mice; 0.1 mg/kg s.c): 95.7 ± 10.6
Promotion(%) of number of feces (mice; 0.1 mg/kg s.c): 91%
Promotion(%) of wet weight of feces (mice; 0.1 mg/kg s.c): 69%
Number (of feces) (mice; 0.3 mg/kg s.c): 6.2 ± 0.8
Wet weight (of feces) (mice; 0.3 mg/kg s.c): 94.7 ± 10.3
Promotion(%) of number of feces (mice; 0.3 mg/kg s.c): 82%
Promotion(%) of wet weight of feces (mice; 0.3 mg/kg s.c): 68%
Number (of feces) (mice; 1 mg/kg s.c): 5.4 ± 0.5
Wet weight (of feces) (mice; 1 mg/kg s.c): 97.7 ± 12.5
Promotion(%) of number of feces (mice; 1 mg/kg s.c): 59%
Promotion(%) of wet weight of feces (mice; 1 mg/kg s.c): 73%
minimal effective dose (mice; Mus musculus, sc, 2 h, s.c., read-out: dose showing significant promotion of defecation): ≥ 0.1 mg/kg
Ratio of transit in large intestine (%) (guinea pig; 0.1 mg/kg p.o.): 57.0 ± 7.0%
Promotion (%) of transit in large intestine (guinea pig; 0.1 mg/kg p.o.): 9%
Ratio of transit in large intestine (%) (guinea pig; 0.3 mg/kg p.o.): 70.9 ± 7.9%
Promotion (%) of transit in large intestine (guinea pig; 0.3 mg/kg p.o.): 35%
Ratio of transit in large intestine (%) (guinea pig; 1 mg/kg p.o.): 77.2 ± 6.4 %
Promotion (%) of transit in large intestine (guinea pig; 1 mg/kg p.o.): 47%
Ratio of transit in large intestine (%) (guinea pig; 3 mg/kg p.o.): 80.1 ± 5.8 %
Promotion (%) of transit in large intestine (guinea pig; 3 mg/kg p.o.): 53%
minimal effective dose (guinea pig; Cavia porcellus, po, 1 h, p.o., read-out: dose that significantly accelerated transit in large intestine): ≥ 1 mg/kg
Number of pellets (remaining in stomach) (rats; 0.1 mg/kg p.o.): 21.1 ± 2.8
Promotion (%) of gastric emptying (rats; 0.1 mg/kg p.o., rats): 25%
Number of pellets (remaining in stomach) (rats; 0.3 mg/kg p.o.): 18.8 ± 3.0
Promotion (%) of gastric emptying (rats; 0.3 mg/kg p.o., rats): 33%
Number of pellets (remaining in stomach) (rats; 1 mg/kg p.o.): 19.5 ± 3.1
Promotion (%) of gastric emptying (rats; 1 mg/kg p.o., rats): 31%
Number of pellets (remaining in stomach) (rats; 3 mg/kg p.o.): 13.4 ± 1.8
Promotion (%) of gastric emptying (rats; 3 mg/kg p.o., rats): 52%
effect on gastric emptying (rats; doses of 0.3 mg/kg and 3 mg/kg p.o., rats): significantly accelerated gastric emptying
death (SD rats [4]): no death
death (SD rats [5]): no animal died
